This passage reports IC50 and viability results from article PMC9850771 (RSC Advances, 2023).

Holding throughout (type): cell-based
One assay concerns MDA-MB-468. Put plainly: MTT cytotoxicity assay, breast cancer cell line MDA-MB-468. The following applies: Homo sapiens, MDA-MB-468, 24 h, read-out: IC50 MDA-MB-468.
A further assay deals with A375. The experiment in a line: MTT cytotoxicity assay, melanoma cell line A375. The note with it: Homo sapiens, A-375, 24 h, read-out: IC50 A375.
The next assay concerns MCF7. The experiment in a line: MTT cytotoxicity assay, breast cancer cell line MCF7. The note with it: Homo sapiens; for IC50: MCF7, 24 h, read-out: IC50 MCF7.

In the case of `CCCCCn1cc(COc2nc3c(c(=O)n(C)c(=O)n3C)n2C)nn1` [Compound 22f, 1,3,7-Trimethyl-8-((1-pentyl-1H-1,2,3-triazol-4-yl)methoxy)-1H-purine-2,6(3H,7H)-dione], the IC50 with MDA-MB-468 was 126 ± 0.6 µM; in the assay on A375, 160 ± 1.5 µM; with MCF7 it was 136 ± 0.2 µM. In addition, the viability at 300 µM in the assay on MCF7 (MCF7, read-out: viability value, MCF-7) was determined as 17 ± 3%.
Take `Cn1c(=O)c2c(nc(OCc3cn(Cc4ccccc4)nn3)n2C)n(C)c1=O` [Compound 22c, 8-((1-Benzyl-1H-1,2,3-triazol-4-yl)methoxy)-1,3,7-trimethyl-1H-purine-2,6(3H,7H)-dione]: the figures for the IC50 in the assay with MDA-MB-468, with A375 and in the assay with MCF7 were greater than 300 µM, less than 12.5 µM and greater than 300 µM, respectively.
Consider `Cn1c(=O)c2c(nc(OCc3cn(C(c4ccccc4)c4ccccc4)nn3)n2C)n(C)c1=O` [Compound 22e, 8-((1-Benzhydryl-1H-1,2,3-triazol-4-yl)methoxy)-1,3,7-trimethyl-1H-purine-2,6(3H,7H)-dione], for which the IC50 is greater than 300 µM with MDA-MB-468, 286 ± 0.2 µM with A375 and 284 ± 0.2 µM in the assay with MCF7.
Turning to `Cc1ccc(Cn2cc(COc3nc4c(c(=O)n(C)c(=O)n4C)n3C)nn2)cc1` [Compound 22d, 1,3,7-Trimethyl-8-((1-(4-methylbenzyl)-1H-1,2,3-triazol-4-yl)methoxy)-3,7-dihydro-1H-purine-2,6-dione], the IC50 in the assay on MDA-MB-468 is greater than 300 µM; in the assay on A375 it was 194 ± 1.6 µM; in the assay on MCF7 it was greater than 300 µM.
For `Cn1c(=O)c2c(nc(OCc3cn(CCCc4ccccc4)nn3)n2C)n(C)c1=O` [Compound 22a, 1,3,7-Trimethyl-8-((1-(3-phenylpropyl)-1H-1,2,3-triazol-4-yl)methoxy)-1H-purine-2,6(3H,7H)-dione], the IC50 was determined as 256 ± 1.4 µM in the assay with MDA-MB-468, 179 ± 1.2 µM in the assay on A375 and 268 ± 0.2 µM with MCF7.
Taken in the same sequence, the figures for `CN(Cc1cnc2nc(N)nc(N)c2n1)c1ccc(C(=O)N[C@@H](CCC(=O)O)C(=O)O)cc1` [MTX, Methotrexate, reference compound] were 37 ± 1.9 µM, 32 ± 2.2 µM and 30 ± 2.9 µM.
In the same order, the values of `CCCCCCCn1cc(COc2nc3c(c(=O)n(C)c(=O)n3C)n2C)nn1` [Compound 22h, 8-((1-Heptyl-1H-1,2,3-triazol-4-yl)methoxy)-1,3,7-trimethyl-1H-purine-2,6(3H,7H)-dione] are greater than 300 µM, greater than 300 µM and greater than 300 µM.
Taken in the same sequence, the figures for `CCCCCCn1cc(COc2nc3c(c(=O)n(C)c(=O)n3C)n2C)nn1` [Compound 22g, 8-((1-Hexyl-1H-1,2,3-triazol-4-yl)methoxy)-1,3,7-trimethyl-1H-purine-2,6(3H,7H)-dione] were greater than 300 µM, greater than 300 µM and greater than 300 µM.
As for `CCCCCCCCCCn1cc(COc2nc3c(c(=O)n(C)c(=O)n3C)n2C)nn1` [Compound 22j, 8-((1-Decyl-1H-1,2,3-triazol-4-yl)methoxy)-1,3,7-trimethyl-1H-purine-2,6(3H,7H)-dione], the 50% inhibitory concentration (IC50) in the assay with MDA-MB-468, in the assay with A375 and in the assay on MCF7 was greater than 300 µM throughout.
Take `CCCCCCCCn1cc(COc2nc3c(c(=O)n(C)c(=O)n3C)n2C)nn1` [Compound 22i, 1,3,7-Trimethyl-8-((1-octyl-1H-1,2,3-triazol-4-yl)methoxy)-1H-purine-2,6(3H,7H)-dione]: the IC50 with MDA-MB-468 was 175 ± 1.4 µM; with A375, 146 ± 1.5 µM; in the assay with MCF7, 165 ± 1.8 µM.
In the same order, the values of `Cn1c(=O)c2c(nc(OCc3cn(CCc4ccccc4)nn3)n2C)n(C)c1=O` [Compound 22b, 1,3,7-Trimethyl-8-((1-phenethyl-1H-1,2,3-triazol-4-yl)methoxy)-1H-purine-2,6(3H,7H)-dione] are greater than 300 µM, greater than 300 µM and greater than 300 µM.
